From US8044082B2, “N-phenylacetamide inhibitors of the enzyme SOAT-1 and pharmaceutical/cosmetic compositions comprised thereof” (Galderma Research & Development, priority 2007, dated 2011)

Key:
enzyme ACAT-1 = target: T1, enzyme ACAT-1 (Homo sapiens, UniProt P35610); assay: ACAT-1 (SOAT-1) inhibition test in HepG2 cells with NBD-cholesterol fluorescence; assay type: cell-based; conditions: NBD-cholesterol 1 μg/ml, incubation 6 h at 37° C., fluorescence excitation 490 nm / emission 540 nm
T1 sequence (P35610 1-550): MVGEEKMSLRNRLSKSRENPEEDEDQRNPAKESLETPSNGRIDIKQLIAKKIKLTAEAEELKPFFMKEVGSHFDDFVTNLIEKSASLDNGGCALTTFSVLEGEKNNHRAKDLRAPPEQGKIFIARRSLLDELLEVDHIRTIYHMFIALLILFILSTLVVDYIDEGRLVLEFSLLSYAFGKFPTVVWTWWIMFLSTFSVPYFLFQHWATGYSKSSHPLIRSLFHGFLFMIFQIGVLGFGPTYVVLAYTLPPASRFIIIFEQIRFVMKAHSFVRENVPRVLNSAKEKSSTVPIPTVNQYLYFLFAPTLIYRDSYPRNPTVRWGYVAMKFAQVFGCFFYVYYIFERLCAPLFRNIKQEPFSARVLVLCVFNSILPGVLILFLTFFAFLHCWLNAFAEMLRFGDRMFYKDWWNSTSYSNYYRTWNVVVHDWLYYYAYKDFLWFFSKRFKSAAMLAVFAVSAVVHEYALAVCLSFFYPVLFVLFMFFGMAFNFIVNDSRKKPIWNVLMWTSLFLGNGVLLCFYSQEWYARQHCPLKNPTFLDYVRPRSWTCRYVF
Method: The compounds (I) according to the invention, as well as their pharmaceutically acceptable salts, solvates and/or hydrates, have inhibitory properties on the enzyme SOAT-1. This inhibitory activity on the enzyme SOAT-1 is measured according to a primary enzymatic test HepG2, as described in Example 64.
The compounds of formula (I) according to the invention have been subjected to a test allowing their inhibitory action with respect to the enzyme ACAT-1 to be evaluated inspired by the following publication: “Identification of ACAT1- and ACAT2-specific inhibitors using a novel, cell-based fluorescence assay: individual ACAT uniqueness”, J. Lipid Res. (2004) vol. 45, pages 378-386.
The principle of this test is based on the employment of NBD-cholesterol, an analogue of cholesterol whose fluorescence depends on its environment. When this is present in a polar environment, it is weakly fluorescent although in a nonpolar environment it is strongly fluorescent. Free NBD-cholesterol locates itself in the cell membranes and is weakly fluorescent in this polar environment. When the NBD-cholesterol is esterified by ACAT, the ester of NBD-cholesterol locates itself in the nonpolar lipid droplets and is in that case strongly fluorescent.
The method below is applied: The HepG2 cells are incubated in the presence of NBD-cholesterol (1 μg/ml) and of the compound of formula (I) to be tested in black 96-well plates with a transparent base at a rate of 30 000 cells per well. After incubation for 6 h at 37° C., under 5% CO2, the medium is eliminated by turning over and the cells are washed with 2 times 100 μl of PBS. After addition of 50 μl of lysis buffer (NaPO4 10 mM, Igepal 1%), the plates are stirred for 5 min and read in fluorescence (excitation 490 nm, emission 540 nm) on a FUSION apparatus (Perkin-Elmer).

Compound	IC50 (enzyme ACAT-1)	melting point
CC(C)c1cccc(C(C)C)c1NC(=O)CN1C(=O)N(c2ccccc2)C2(CCCC2)C1=O [compound (I.1), N-(2,6-Diisopropylphenyl)-2-(2,4-dioxo-1-phenyl-1,3-diazaspiro[4.4]non-3-yl)acetamide]	3.2 nM	–
CC(C)c1cccc(C(C)C)c1NC(=O)CN1C(=O)N(c2ccc(F)cc2)C2(CCCCC2)C1=O [compound (I.7), N-(2,6-Diisopropylphenyl)-2-[1-(4-fluorophenyl)-2,4-dioxo-1,3-diazaspiro-[4.5]dec-3-yl]acetamide]	0.8 nM	258 °C
Cc1ccc(N2C(=O)N(CC(=O)Nc3c(C(C)C)cccc3C(C)C)C(=O)C23CCCCC3)cc1 [compound (I.10), N-(2,6-Diisopropylphenyl)-2-(2,4-dioxo-1-p-tolyl-1,3-diazaspiro[4.5]dec-3-yl)acetamide]	0.2 nM	234 °C
CC(C)c1cccc(C(C)C)c1NC(=O)CN1C(=O)N(C2CCCCC2)C2(CCCCC2)C1=O [compound (I.14), 2-[1-Cyclohexyl-2,4-dioxo-1,3-diazaspiro[4.5]dec-3-yl)-N-(2,6-diisopropyl-phenyl)acetamide]	4.8 nM	236 °C
CC(C)c1cccc(C(C)C)c1NC(=O)CN1C(=O)N(CCc2ccccc2)C2(CCCCC2)C1=O [compound (I.23), N-(2,6-Diisopropylphenyl)-2-(2,4-dioxo-1-phenethyl-1,3-diazaspiro[4.5]dec-3-yl)acetamide]	5.6 nM	225 °C
CCCCN1C(=O)N(CC(=O)Nc2c(C(C)C)cccc2C(C)C)C(=O)C12CCCCC2 [compound (I.26), 2-(1-Butyl-2,4-dioxo-1,3-diazaspiro[4.5]dec-3-yl)-N-(2,6-diisopropylphenyl)acetamide]	2.5 nM	241 °C
CCC1(CC)C(=O)N(CC(=O)Nc2c(C(C)C)cccc2C(C)C)C(=O)N1c1ccc(C)cc1 [compound (I.39), 2-(4,4-Diethyl-2,5-dioxo-3-p-tolylimidazolidin-1-yl)-N-(2,6-diisopropylphenyl)acetamide]	0.7 nM	174 °C
Cc1ccc(N2C(=O)N(CC(=O)Nc3c(C)cc(C)cc3C)C(=O)C23CCCCC3)cc1 [compound (I.45), 2-(2,4-Dioxo-1-p-tolyl-1,3-diazaspiro[4.5]dec-3-yl)-N-(2,4,6-trimethylphenyl)acetamide]	–	266 °C
Cc1ccc(N2C(=O)N(CC(=O)Nc3c(C)cccc3Cl)C(=O)C23CCCCC3)cc1 [compound (I.46), N-(2-Chloro-6-methylphenyl)-2-(2,4-dioxo-1-p-tolyl-1,3-diazaspiro[4.5]dec-3-yl)acetamide]	5.1 nM	244 °C
Cc1ccc(N2C(=O)N(CC(=O)Nc3c(C)cccc3C(C)C)C(=O)C23CCCCC3)cc1 [compound (I.47), 2-(2,4-Dioxo-1-p-tolyl-1,3-diazaspiro[4.5]dec-3-yl)-N-(2-isopropyl-6-methylphenyl)acetamide]	–	195 °C
CCc1cccc(CC)c1NC(=O)CN1C(=O)N(c2ccc(C)cc2)C2(CCCCC2)C1=O [compound (I.48), N-(2,6-Diethylphenyl)-2-(2,4-dioxo-1-p-tolyl-1,3-diazaspiro[4.5]dec-3-yl)-acetamide]	–	214 °C
CCc1cc(C)cc(CC)c1NC(=O)CN1C(=O)N(c2ccc(C)cc2)C2(CCCCC2)C1=O [compound (I.49), N-(2,6-Diethyl-4-methylphenyl)-2-(2,4-dioxo-1-p-tolyl-1,3-diazaspiro[4.5]dec-3-yl)acetamide]	–	223 °C
Cc1ccc(N2C(=O)N(CC(=O)Nc3c(C)cc(C)cc3Cl)C(=O)C23CCCCC3)cc1 [compound (I.50), N-(2-Chloro-4,6-dimethylphenyl)-2-(2,4-dioxo-1-p-tolyl-1,3-diazaspiro[4.5]dec-3-yl)acetamide]	–	248 °C
CCc1cccc(CC)c1NC(=O)CN1C(=O)N(CCc2ccccc2)C2(CCCCC2)C1=O [compound (I.51), N-(2,6-Diethylphenyl)-2-(2,4-dioxo-1-phenethyl-1,3-diazaspiro[4.5]dec-3-yl)acetamide]	–	178 °C
Cc1ccc(N2C(=O)N(CC(=O)Nc3c(C)cc(C)cc3Br)C(=O)C23CCCCC3)cc1 [compound (I.52), N-(2-Bromo-4,6-dimethylphenyl)-2-(2,4-dioxo-1-p-tolyl-1,3-diazaspiro[4.5]dec-3-yl)acetamide]	5.3 nM	245 °C
Cc1ccc(N2C(=O)N(CC(=O)Nc3c(C)cccc3C(C)(C)C)C(=O)C23CCCCC3)cc1 [compound (I.53), N-(2-tert-Butyl-6-methylphenyl)-2-(2,4-dioxo-1-p-tolyl-1,3-diazaspiro[4.5]dec-3-yl)acetamide]	–	120 °C
CCc1ccc(N2C(=O)N(CC(=O)Nc3c(CC)cccc3CC)C(=O)C23CCCCC3)cc1 [compound (I.54), N-(2,6-Diethylphenyl)-2-[1-(4-ethylphenyl)-2,4-dioxo-1,3-diazaspiro[4.5]dec-3-yl]acetamide]	–	188 °C
CCCN1C(=O)N(CC(=O)Nc2c(CC)cccc2CC)C(=O)C12CCCCC2 [compound (I.55), N-(2,6-Diethylphenyl)-2-(2,4-dioxo-1-propyl-1,3-diazaspiro[4.5]dec-3-yl)acetamide]	–	222 °C
CCCCc1ccc(N2C(=O)N(CC(=O)Nc3c(CC)cccc3CC)C(=O)C23CCCCC3)cc1 [compound (I.56), 2-[1-(4-Butylphenyl)-2,4-dioxo-1,3-diazaspiro[4.5]dec-3-yl]-N-(2,6-diethyl-phenyl)acetamide]	–	171 °C
CCc1ccc(N2C(=O)N(CC(=O)Nc3c(CC)cccc3CC)C(=O)C23CCCC3)cc1 [compound (I.57), N-(2,6-Diethylphenyl)-2-[1-(4-ethylphenyl)-2,4-dioxo-1,3-diazaspiro[4.4]non-3-yl]acetamide]	–	191 °C
CCCCCCCN1C(=O)N(CC(=O)Nc2c(CC)cccc2CC)C(=O)C12CCCCC2 [compound (I.58), N-(2,6-Diethylphenyl)-2-(1-heptyl-2,4-dioxo-1,3-diazaspiro[4.5]dec-3-yl)acetamide]	–	126 °C
CCc1cccc(CC)c1NC(=O)CN1C(=O)N(CC(C)C)C2(CCCCC2)C1=O [compound (I.59), N-(2,6-Diethylphenyl)-2-(1-isobutyl-2,4-dioxo-1,3-diazaspiro[4.5]dec-3-yl)acetamide]	–	209 °C
CC(C)c1cccc(C(C)C)c1NC(=O)CN1C(=O)N(c2ccc(OCc3ccccc3)cc2)C2(CCCCC2)C1=O [compound (I.60), 2-[1-(4-Benzyloxyphenyl)-2,4-dioxo-1,3-diazaspiro[4.5]dec-3-yl]-N-(2,6-di-isopropylphenyl)acetamide]	–	118 °C
CCc1cccc(CC)c1NC(=O)CN1C(=O)N(c2ccc(Cl)cc2)C2(CCCC2)C1=O [compound (I.61), 2-[1-(4-Chlorophenyl)-2,4-dioxo-1,3-diazaspiro[4.4]non-3-yl]-N-(2,6-diethylphenyl)acetamide]	2.7 nM	218 °C
CCc1cccc(CC)c1NC(=O)CN1C(=O)N(c2ccc(OCc3ccccc3)cc2)C2(CCCCC2)C1=O [compound (I.62), 2-[1-(4-Benzyloxyphenyl)-2,4-dioxo-1,3-diazaspiro[4.5]dec-3-yl]-N-(2,6-di-ethylphenyl)acetamide]	–	184 °C
CCc1cccc(CC)c1NC(=O)CN1C(=O)N(Cc2ccccc2)C2(CCCCC2)C1=O [compound (I.63), 2-(1-Benzyl-2,4-dioxo-1,3-diazaspiro[4.5]dec-3-yl)-N-(2,6-diethylphenyl)-acetamide]	–	179 °C
